Reference: ChEMBL document CHEMBL4406896, “Pyrenocine A induces monopolar spindle formation and suppresses proliferation of cancer cells” (Bioorg Med Chem, 2019)
Active and inactive are the calls of the source. The rule behind the calls is not given here.

Legend:
[1] = test system: HeLa; test: Antiproliferative activity against human HeLa cells incubated for 48 hrs by WST8 assay; type: functional, cell-based
[2] = test system: HeLa; test: Induction of cell cycle arrest in S phase synchronized human HeLa cells stably expressing GFP-HistoneH1 fusion protein assessed as increase in formation of ring shaped chromosomes incubated for 4 hrs by inverted fluorescence microscopic method; type: functional, cell-based
[3] = test system: A549; test: Antiproliferative activity against human A549 cells incubated for 48 hrs by WST8 assay; type: functional, cell-based; conditions: A549, 48 h
[4] = molecular target: T1, Kinesin-like protein KIF11 (Homo sapiens) (UniProt P52732); test: Inhibition of human Eg5 motor domain (1 to 368 residues) expressed in Escherichia coli assessed as reduction in microtubule-stimulated ATPase activity at 100 uM incubated with ATP for 6 mins by malachite green method
T1 sequence (whole entry): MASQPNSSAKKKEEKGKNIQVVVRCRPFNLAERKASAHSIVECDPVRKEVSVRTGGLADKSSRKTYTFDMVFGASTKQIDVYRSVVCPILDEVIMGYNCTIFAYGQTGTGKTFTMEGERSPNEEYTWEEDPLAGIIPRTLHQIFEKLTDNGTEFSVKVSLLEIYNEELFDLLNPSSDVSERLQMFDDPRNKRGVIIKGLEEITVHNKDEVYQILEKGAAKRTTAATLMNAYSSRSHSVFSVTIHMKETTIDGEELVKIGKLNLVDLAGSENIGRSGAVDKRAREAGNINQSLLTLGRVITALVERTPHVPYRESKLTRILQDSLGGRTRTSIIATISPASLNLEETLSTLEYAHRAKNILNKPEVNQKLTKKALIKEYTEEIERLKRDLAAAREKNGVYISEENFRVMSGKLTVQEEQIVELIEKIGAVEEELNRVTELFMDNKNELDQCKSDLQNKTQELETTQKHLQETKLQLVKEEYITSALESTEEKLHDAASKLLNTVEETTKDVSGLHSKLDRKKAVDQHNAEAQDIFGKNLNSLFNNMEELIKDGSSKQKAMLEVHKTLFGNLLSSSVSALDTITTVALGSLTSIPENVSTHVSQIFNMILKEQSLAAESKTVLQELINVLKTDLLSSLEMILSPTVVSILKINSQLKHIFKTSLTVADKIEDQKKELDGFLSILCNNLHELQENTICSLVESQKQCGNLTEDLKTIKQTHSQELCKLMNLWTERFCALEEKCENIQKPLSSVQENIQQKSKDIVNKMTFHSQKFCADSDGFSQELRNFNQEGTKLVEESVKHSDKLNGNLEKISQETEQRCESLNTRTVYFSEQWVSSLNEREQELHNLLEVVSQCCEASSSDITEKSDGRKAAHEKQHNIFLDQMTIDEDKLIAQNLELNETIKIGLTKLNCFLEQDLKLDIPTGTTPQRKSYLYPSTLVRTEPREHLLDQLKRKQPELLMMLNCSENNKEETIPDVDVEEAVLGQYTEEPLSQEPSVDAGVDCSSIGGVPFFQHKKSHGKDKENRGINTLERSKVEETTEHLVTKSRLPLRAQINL

[5] = test system: HeLa; test: Induction of cell cycle arrest in S phase synchronized human HeLa cells stably expressing GFP-HistoneH1 fusion protein assessed as increase in total mitotic cells at 5 uM incubated for 6 hrs by inverted fluorescence microscopic method relative to control; type: functional
[6] = test system: Huh-7; test: Antiproliferative activity against human HuH7 cells incubated for 48 hrs by WST8 assay; type: functional, cell-based; conditions: Huh-7, 48 h
[7] = test system: HCT-116; test: Antiproliferative activity against human HCT116 cells incubated for 48 hrs by WST8 assay; type: functional, cell-based; conditions: HCT-116, 48 h
[8] = test system: HeLa; test: Induction of cell cycle arrest in S phase synchronized human HeLa cells stably expressing GFP-HistoneH1 fusion protein assessed as increase in total mitotic cells at 1 uM incubated for 6 hrs by inverted fluorescence microscopic method relative to control; type: functional
[9] = test system: HeLa; test: Induction of cell cycle arrest in human HeLa cells assessed as mono-polar spindles formation surrounded by ring shaped chromosomes in mitotic cells at 5 uM incubated for 6 hrs by Hoechst 33342 staining based confocal microscopic method; type: functional
[10] = test system: HeLa; test: Induction of cell cycle arrest in S phase synchronized human HeLa cells stably expressing GFP-HistoneH1 fusion protein assessed as chromosomes alignment at 5 uM incubated for 3 hrs by inverted fluorescence microscopic method; type: functional, cell-based
[11] = test system: HeLa; test: Induction of cell cycle arrest in S phase synchronized human HeLa cells stably expressing GFP-HistoneH1 fusion protein assessed as formation of ring shaped chromosomes at 5 uM incubated for 4 hrs by inverted fluorescence microscopic method; type: functional, cell-based
[12] = test system: HeLa; test: Cytotoxicity against human HeLa cells assessed as cell death at 5 to […] incubated for 48 hrs by LDH assay relative to control; type: cell-based
[13] = test system: HeLa; test: Induction of cell cycle arrest in S phase synchronized human HeLa cells stably expressing GFP-HistoneH1 fusion protein assessed as increase in total mitotic cells at 10 uM incubated for 6 hrs by inverted fluorescence microscopic method relative to control; type: functional
[14] = test system: HeLa; test: Induction of cell cycle arrest in S phase synchronized human HeLa cells stably expressing GFP-HistoneH1 fusion protein assessed as chromosomes division at 5 uM incubated for 3 hrs by inverted fluorescence microscopic method; type: functional, cell-based
[15] = test system: HeLa; test: Induction of cell cycle arrest in human HeLa cells assessed as mono-polar spindles formation surrounded by ring shaped chromosomes in mitotic cells at 3 uM incubated for 6 hrs by Hoechst 33342 staining based confocal microscopic method; type: functional

In the case of `COc1cc(=O)oc(C)c1C(=O)CC(C)O` (centres undefined), the IC50 [1] is reported as 22300 nM.

In the case of `C/C=C/Cc1c(O)cc(=O)oc1C`, the IC50 [1] is reported as greater than 100000 nM.

In the case of `C#CCOCC/C=C/C(=O)c1c(OC)cc(=O)oc1C`, the Activity [2] is reported as “Active” and the IC50 [1] is reported as 2300 nM.

In the case of `C/C=C/C(=O)c1c(OC)cc(=O)oc1C`, the IC50 [3] is reported as 12900 nM, the Activity [4] is reported as “inactive” and the Activity [2] is reported as “Dose-dependent effect”. It also gave an Activity [5] of 7%, an IC50 [6] of 8600 nM and an IC50 [7] of 2600 nM. For the same compound, the Activity [8] was 2%, the Activity [9] was “Active” and the Activity [10] was “inactive”. For the same compound, the Activity [11] was “Active”, the IC50 [1] was 9300 nM and the Activity [12] was 0 to 6%. For the same compound, the Activity [13] was 14% and the Activity [14] was “inactive”.

Work on `CCCC(=O)c1c(OC)cc(=O)oc1C` yielded an IC50 [1] greater than 100000 nM.

In the case of `COc1cccc2c1C(=O)c1c(O)c3c(c(O)c1C2=O)C[C@@](O)(C(=O)CO)C[C@@H]3O[C@H]1C[C@H](N)[C@H](O)[C@H](C)O1` [DOXORUBICIN], the IC50 [3] is reported as 240 nM, the IC50 [6] is reported as 220 nM and the IC50 [7] is reported as 250 nM. For the same compound, the IC50 [1] was 400 nM.

In the case of `N[C@@H](CSC(c1ccccc1)(c1ccccc1)c1ccccc1)C(=O)O`, the Activity [15] is reported as “Active”.
